Where two headings read alike, the source gives them in different places.

The test addresses HiBiT tagged Wee1 (Homo sapiens, UniProt P30291). In words: Wee1 protein degradation assay (HiBiT assay). The format is cell-based.
The mark [1] stands for this setting: engineered HT-1080 cells, 20 hours.
The mark [2] stands for this setting: engineered HT-1080 cells, 20 hours, maximum percentage of Wee1 degradation, read-out: HiBiT Wee1: Dmax.

HiBiT tagged Wee1, sequence (P30291 whole entry): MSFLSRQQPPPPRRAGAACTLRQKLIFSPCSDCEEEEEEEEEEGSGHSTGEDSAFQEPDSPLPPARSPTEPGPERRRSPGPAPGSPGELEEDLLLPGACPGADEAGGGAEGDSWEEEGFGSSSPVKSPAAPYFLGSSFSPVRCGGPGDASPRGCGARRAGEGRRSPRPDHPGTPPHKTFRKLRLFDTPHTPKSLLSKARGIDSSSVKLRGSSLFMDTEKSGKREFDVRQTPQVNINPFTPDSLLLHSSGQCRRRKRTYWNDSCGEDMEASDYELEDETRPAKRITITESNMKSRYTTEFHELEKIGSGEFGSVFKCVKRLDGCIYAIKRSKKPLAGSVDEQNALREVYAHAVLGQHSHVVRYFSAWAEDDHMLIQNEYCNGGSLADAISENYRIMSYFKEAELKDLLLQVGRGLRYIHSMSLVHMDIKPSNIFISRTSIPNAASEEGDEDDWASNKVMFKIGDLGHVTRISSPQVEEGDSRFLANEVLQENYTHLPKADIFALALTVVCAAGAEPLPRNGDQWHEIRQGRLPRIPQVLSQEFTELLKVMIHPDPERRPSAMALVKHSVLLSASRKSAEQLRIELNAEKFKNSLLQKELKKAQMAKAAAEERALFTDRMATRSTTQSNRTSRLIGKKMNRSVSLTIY

A word on the DC50: it is the concentration at which degradation of the target reaches its halfway point. Lower therefore signals degradation at low concentration. The term Dmax denotes the greatest extent of degradation seen. For `O=C1CCC(Nc2ccc(N3CCN(CC4CCN(c5ccc(Nc6ncc7c(=O)n(-c8c(Cl)cccc8Cl)c8nccn8c7n6)cc5)CC4)CC3)c(F)c2)C(=O)N1` (stereo not drawn) [Compound 94], the DC50 under setting [1] is less than 100 nM. Moreover, the Dmax under setting [2] is greater than 75%.

Consider `C=CCn1c(=O)c2cnc(Nc3ccc4c(c3)CN(CCCCc3cccc5c3CN(C3CCC(=O)NC3=O)C5=O)CC4)nc2n1-c1cccc(C(C)(C)O)n1` (stereo not drawn) [Compound 49], for which the DC50 under setting [1] was greater than 1000 nM. Further, the Dmax under setting [2] is less than 50%.

Take `O=C1CCC(N2C(=O)c3ccc(N4CCC(CCN5CCC(c6ccc(Nc7ncc8c(=O)n(-c9c(Cl)cccc9Cl)c9nccn9c8n7)cc6)CC5)CC4)cc3C2=O)C(=O)N1` (stereo not drawn) [Compound 15]: under setting [1], the DC50 lay within 100 to 1000 nM. For the same compound, the Dmax under setting [2] is 50 to 75%.

Turning to `C=CCn1c(=O)c2cnc(Nc3ccc(N4CCN(CC5CN(c6ccc(NC7CCC(=O)NC7=O)cc6F)C5)CC4)cc3)nc2n1-c1cccc(C(C)(C)O)n1` (stereo not drawn) [Compound 122], the DC50 under setting [1] was less than 100 nM. For the same compound, the Dmax under setting [2] was greater than 75%.

Under setting [1], `C=CCn1c(=O)c2cnc(Nc3ccc(N4CCN(CC5CCN(c6cc(OC)c(NC7CCC(=O)NC7=O)cc6F)CC5)CC4)cc3)nc2n1-c1ccc2c(n1)[C@@](O)(CC)CC2` (stereo partly drawn) [Compound 177] came in with a DC50 of less than 100 nM. The Dmax under setting [2] was greater than 75%.

As to `C=CCn1c(=O)c2cnc(Nc3ccc(N4CCC(N5CC6(CN(c7ccc(NC8CCC(=O)NC8=O)cc7F)C6)C5)CC4)cc3)nc2n1-c1ccc2c(n1)[C@@](O)(CC)CC2` (stereo partly drawn) [Compound 154], the DC50 under setting [1] was less than 100 nM. Moreover, the Dmax under setting [2] was greater than 75%.

Turning to `C=CCn1c(=O)c2cnc(Nc3ccc(N4CCN(CC5CCN(c6c(F)cc(NC7CCC(=O)NC7=O)cc6F)CC5)CC4)cc3)nc2n1-c1ccc2c(n1)[C@@](O)(CC)CC2` (stereo partly drawn) [Compound 175], the DC50 under setting [1] was less than 100 nM. Moreover, the Dmax under setting [2] was greater than 75%.

The compound `Cc1cc(Nc2ncc3c(n2)N(C)CN(c2c(Cl)cccc2Cl)C3=O)ccc1N1CCC(CN2CCN(c3cccc4c3C(=O)N(C3CCC(=O)NC3=O)C4=O)CC2)CC1` (stereo not drawn) [Compound 31] displayed a DC50 under setting [1] greater than 1000 nM. Further, the Dmax under setting [2] is less than 50%.

With `C=CCn1c(=O)c2cnc(Nc3ccc(C4CCN(C5CCN(c6cccc7c6n(C)c(=O)n7C6CCC(=O)NC6=O)CC5)CC4)cc3)nc2n1-c1cccc(C(C)(C)O)n1` (stereo not drawn) [Compound 99], the DC50 under setting [1] is less than 100 nM. For the same compound, the Dmax under setting [2] lay in the range of 50 to 75%.

As to `C=CCn1c(=O)c2cnc(Nc3ccc(N4CCN(C5CCN(c6ccc(NC7CCC(=O)NC7=O)cc6F)CC5)[C@H](C)C4)cc3)nc2n1-c1ccc2c(n1)[C@@](O)(CC)CC2` (stereo partly drawn) [Compound 186], the DC50 under setting [1] is less than 100 nM. In addition, the Dmax under setting [2] is greater than 75%.

Take `C=CCn1c(=O)c2cnc(Nc3ccc(N4CCN(CC5CCN(c6cccc7c(N8CCC(=O)NC8=O)nn(C)c67)CC5)CC4)cc3)nc2n1-c1ccc2c(n1)[C@@](O)(CC)CC2` [Compound 124]: the DC50 under setting [1] is less than 100 nM. Under setting [2], the Dmax was in the range of 50 to 75%.

Turning to `C=CCn1c(=O)c2cnc(Nc3ccc(N4CCN(CC5CCN(c6ccc(NC7CCC(=O)NC7=O)cc6F)CC5)CC4)cc3)nc2n1-c1ccc2c(n1)[C@](C)(O)CC2` (stereo partly drawn) [Compound 112], the DC50 under setting [1] was less than 100 nM. Under setting [2], the greatest degradation seen (Dmax) was greater than 75%.

The compound `C=CCn1c(=O)c2cnc(Nc3ccc(N4CCC(CN5CCN(c6ccc(NC7CCC(=O)NC7=O)cc6F)CC5)CC4)c(C)c3)nc2n1-c1ccc2c(n1)[C@@](O)(CC)CC2` (stereo partly drawn) [Compound 134] had a DC50 under setting [1] of less than 100 nM. For the same compound, the Dmax under setting [2] is greater than 75%.

For the compound `C=CCn1c(=O)c2cnc(Nc3ccc(N4CCC(N5CCN(c6ccc7c(c6)C(=O)N(C6CCC(=O)NC6=O)C7=O)CC5)CC4)cc3)nc2n1-c1cccc(C(C)(C)O)n1` (stereo not drawn) [Compound 77], under setting [1], the DC50 is less than 100 nM. Under setting [2], the Dmax lay within 50 to 75%.

Under setting [1], `C=CCn1c(=O)c2cnc(Nc3ccc(N4CCC(CN5CCN(c6cc7c(cc6F)C(=O)N(C6CCC(=O)NC6=O)C7=O)CC5)CC4)cc3)nc2n1-c1cccc(C(C)(C)O)n1` (stereo not drawn) [Compound 57] gave a DC50 of less than 100 nM. Moreover, the maximal degradation (Dmax) under setting [2] lay within 50 to 75%.

On to `C=CCn1c(=O)c2cnc(Nc3ccc(N4CCN(CC5CCN(c6ccc(NC7CCC(=O)NC7=O)cc6Cl)CC5)CC4)cc3)nc2n1-c1cccc(C(C)(C)O)n1` (stereo not drawn) [Compound 88], for which, under setting [1], the DC50 is less than 100 nM. Under setting [2], the Dmax was greater than 75%.

As for `C=CCn1c(=O)c2cnc(Nc3ccc(N4CCN(CC5CCN(c6ccc(NC7CCC(=O)NC7=O)cc6F)CC5)CC4)cc3)nc2n1-c1ccc2c(n1)[C@@](C)(O)CC2` (stereo partly drawn) [Compound 113], the DC50 under setting [1] is less than 100 nM. Under setting [2], the Dmax is greater than 75%.

Under setting [1], `C=CCn1c(=O)c2cnc(Nc3ccc(C4CCN(CC5CCN(c6ccc(NC7CCC(=O)NC7=O)cc6C(F)(F)F)CC5)CC4)cc3)nc2n1-c1cccc(C(C)(C)O)n1` (stereo not drawn) [Compound 107] came in with a DC50 of less than 100 nM. In addition, the Dmax under setting [2] is greater than 75%.

`O=C1CCC(Nc2ccc(N3CCC(CN4CCN(c5ccc(Nc6ncc7c(=O)n(-c8c(Cl)cccc8Cl)c8nccn8c7n6)cc5)CC4)CC3)c(F)c2)C(=O)N1` (stereo not drawn) [Compound 83] yielded a DC50 under setting [1] of less than 100 nM. Further, the Dmax under setting [2] is greater than 75%.

Under setting [1], `C=CCn1c(=O)c2cnc(Nc3ccc(N4CC(N5CC6(CCN(c7ccc(NC8CCC(=O)NC8=O)cc7F)CC6)C5)C4)cc3)nc2n1-c1ccc2c(n1)[C@@](O)(CC)CC2` (stereo partly drawn) [Compound 172] displayed a DC50 of less than 100 nM. In addition, under setting [2], the maximal degradation (Dmax) was in the range of 50 to 75%.

With `C=CCn1c(=O)c2cnc(Nc3ccc4c(c3)CN(CCCCCCNc3ccc5c(c3)C(=O)N(C3CCC(=O)NC3=O)C5=O)CC4)nc2n1-c1cccc(C(C)(C)O)n1` (stereo not drawn) [Compound 22], the Dmax (HT-1080, read-out: HiBiT Wee1: Dmax) is less than 50%. For the same compound, the half-maximal degradation concentration (DC50) under setting [1] was greater than 1000 nM.

On to `C=CCn1c(=O)c2cnc(Nc3ccc(N4CCN(C5CC6(C5)CN(c5ccc7c(N8CCC(=O)NC8=O)nn(C)c7c5)C6)CC4)cc3)nc2n1-c1ccc2c(n1)[C@@](O)(CC)CC2` [Compound 170], for which the DC50 under setting [1] is less than 100 nM. In addition, under setting [2], the Dmax was greater than 75%.

`C=CCn1c(=O)c2cnc(Nc3ccc(C4CCN(CC5CCN(c6ccc(NC7CCC(=O)NC7=O)cn6)CC5)CC4)cc3)nc2n1-c1cccc(C(C)(C)O)n1` (stereo not drawn) [Compound 84] returned a DC50 under setting [1] of less than 100 nM. Moreover, under setting [2], the Dmax fell in the range of 50 to 75%.

As to `C=CCn1c(=O)c2cnc(Nc3ccc(N4CCN(CCCc5ccc6c(c5)C(=O)N(C5CCC(=O)NC5=O)C6=O)CC4)cc3)nc2n1-c1cccc(C(C)(C)O)n1` (stereo not drawn) [Compound 45], the DC50 under setting [1] was less than 100 nM. The Dmax under setting [2] was greater than 75%.

Turning to `C=CCn1c(=O)c2cnc(Nc3ccc(N4CCC(CN5CCC(c6cccc(NC7CCC(=O)NC7=O)c6)CC5)CC4)cc3)nc2n1-c1cccc(C(C)(C)O)n1` (stereo not drawn) [Compound 145], the DC50 under setting [1] was in the range of 100 to 1000 nM. For the same compound, the Dmax under setting [2] lay within 50 to 75%.

As to `C=CCn1c(=O)c2cnc(Nc3ccc(N4CCN(C(=O)CC5(O)CCN(c6ccc(NC7CCC(=O)NC7=O)cc6F)CC5)CC4)cc3)nc2n1-c1ccc2c(n1)[C@@](O)(CC)CC2` (stereo partly drawn) [Compound 159], the DC50 under setting [1] was less than 100 nM. Moreover, the Dmax under setting [2] is 50 to 75%.

Under setting [1], `C=CCn1c(=O)c2cnc(Nc3ccc(N4CCC(CN5CCN(c6cccc7c(N8CCC(=O)NC8=O)nn(C)c67)CC5)CC4)cc3)nc2n1-c1cccc(C(C)(C)O)n1` [Compound 118] had a DC50 of 100 to 1000 nM. Further, the Dmax under setting [2] fell in the range of 50 to 75%.

`C=CCn1c(=O)c2cnc(Nc3ccc(N4CCN(CCCCc5cccc6c5CN(C5CCC(=O)NC5=O)C6=O)CC4)cc3)nc2n1-c1cccc(C(C)(C)O)n1` (stereo not drawn) [Compound 50] had a DC50 under setting [1] of less than 100 nM. The Dmax under setting [2] lay in the range of 50 to 75%.

As to `C=CCn1c(=O)c2cnc(Nc3ccc(N4CCN(CC5CCN(c6ccc(NC7CCC(=O)NC7=O)cc6F)CC5)CC4)cc3)nc2n1-c1cccc(C(C)(C)O)n1` (stereo not drawn) [Compound 102-A], the DC50 under setting [1] was less than 100 nM. For the same compound, the Dmax under setting [2] is greater than 75%.

`C=CCn1c(=O)c2cnc(Nc3ccc(C4CCN(CC5CCN(c6ccc(NC7CCC(=O)NC7=O)cc6F)CC5)CC4)cc3)nc2n1-c1cccc(C(C)(C)O)n1` (stereo not drawn) [Compound 73] registered a DC50 under setting [1] of less than 100 nM. Under setting [2], the Dmax was greater than 75%.

Under setting [1], `C=CCn1c(=O)c2cnc(Nc3ccc(N4CCC(CC(=O)Nc5cccc6c(N7CCC(=O)NC7=O)nn(C)c56)CC4)cc3)nc2n1-c1ccc2c(n1)[C@@](O)(CC)CC2` [Compound 202] registered a DC50 greater than 1000 nM. Also, the Dmax under setting [2] was less than 50%.

`C=CCn1c(=O)c2cnc(Nc3ccc(N4CCC(CN5CCN(c6ccc(NC7CCC(=O)NC7=O)cc6F)CC5)CC4)c(C)c3)nc2n1-c1ccc2c(n1)[C@](C)(O)CC2` (stereo partly drawn) [Compound 132] showed a DC50 under setting [1] of less than 100 nM. The greatest degradation seen (Dmax) under setting [2] was greater than 75%.

Under setting [1], `C=CCn1c(=O)c2cnc(Nc3ccc(N4CCC(CN5CCN(c6cccc7c6n(C)c(=O)n7C6CCC(=O)NC6=O)CC5)CC4)cc3)nc2n1-c1cccc(C(C)(C)O)n1` (stereo not drawn) [Compound 90] gave a DC50 of less than 100 nM. The Dmax under setting [2] was greater than 75%.

For the compound `C=CCn1c(=O)c2cnc(Nc3ccc(N4CCN(CCC5CCN(C(=O)c6ccc(OC)c(N7CCC(=O)NC7=O)c6)CC5)CC4)cc3)nc2n1-c1cccc(C(C)(C)O)n1` [Compound 29], the DC50 under setting [1] is greater than 1000 nM. Further, the Dmax under setting [2] was less than 50%.

In turn, `Cc1cc(Nc2ncc3c(n2)N(C)CN(c2c(Cl)cccc2Cl)C3=O)ccc1N1CCC(CN2CCN(c3ccc4c(c3)CN(C3CCC(=O)NC3=O)C4=O)CC2)CC1` (stereo not drawn) [Compound 34] gave a DC50 under setting [1] greater than 1000 nM. The Dmax under setting [2] is less than 50%.

Compound `COc1ccc(C(=O)N2CCC(OC3CCN(Cc4ccc(Nc5ncc6c(=O)n(-c7c(Cl)cccc7Cl)c7nccn7c6n5)cc4)CC3)CC2)cc1N1CCC(=O)NC1=O` [Compound 60] registered a DC50 under setting [1] greater than 1000 nM. Also, under setting [2], the Dmax is less than 50%.

Take `C=CCn1c(=O)c2cnc(Nc3ccc(N4CCC(CN5CCN(c6ccc7c(N8CCC(=O)NC8=O)nn(C)c7c6)CC5)CC4)c(C)c3)nc2n1-c1ccc2c(n1)[C@@](O)(CC)CC2` [Compound 135]: under setting [1], the DC50 was less than 100 nM. Further, the Dmax under setting [2] was greater than 75%.

Take `C=CCn1c(=O)c2cnc(Nc3ccc(N4CCC5(CC4)CCN(C4CN(c6ccc(NC7CCC(=O)NC7=O)cc6F)C4)CC5)cc3)nc2n1-c1ccc2c(n1)[C@@](O)(CC)CC2` (stereo partly drawn) [Compound 171]: the DC50 under setting [1] was less than 100 nM. Further, the Dmax under setting [2] is greater than 75%.

Under setting [1], `C=CCn1c(=O)c2cnc(Nc3ccc(N4CCC(N5CC[C@H](c6ccc(NC7CCC(=O)NC7=O)cc6F)C(F)(F)C5)CC4)cc3)nc2n1-c1ccc2c(n1)[C@@](O)(CC)CC2` (single isomer, unassigned) [Compound 183] displayed a DC50 of less than 100 nM. Further, the Dmax under setting [2] is greater than 75%.

These data come from US20250049798A1, “WEE1 PROTEIN KINASE DEGRADATION AGENT AND USE THEREOF” (HANGZHOU GLUBIO PHARMACEUTICAL CO. LTD., priority 2021, published 2025).
